In brackets after ≈: the same amount, converted by molar mass. Like-named read-outs stand apart in the source and are kept apart here.
Key:
[1] = test system: CCD 841 CoN (colon epithelial cells); experiment: Sulforhodamine B (SRB) cell viability assay; format: cell-based; details: Homo sapiens, 72 h, non-tumorigenic cells
Procedure: (§1) The cytotoxicity of C. chilense EO was evaluated in two non-tumorigenic human cell lines: CCD 841 CoN (colon epithelial cells) and HEK-293T (human embryonic kidney). All tested cell lines were obtained from the AmericanType Culture Collection (Rockville, MD, United States). The different cell lines were maintained as monolayers in a culture medium (HAM-F10 + DMEM, 1:1) supplemented with 10% fetal bovine serum, as well as antibiotics (0.01 mg/mL streptomycin and 0.005 mg/mL penicillin). The cells were incubated at 37 °C in a humidified 5% CO2 atmosphere.
(§2) To determine the effect on cell viability of C. chilense EO, the sulforhodamine B (SRB)assay was used to measure the number of viable cells after each treatment ([Silva et al., 2022]). Cells were seeded in 96-well plates at 3 × 10^3 cells/well in 100 μL of culture medium and treated in triplicate with increasing concentrations of essential oil (0.625–100 μg/mL) for 72 h at 37°C and 5% CO2. The cells which received only the medium containing 0.1% DMSO served as the control group. […] The dye is solubilized with 150 μL/well of 10 mM Tris Base, and the absorbance is then measured at a wavelength of 540 nm in a microplate reader. […]

[2] = test system: HEK-293T (human embryonic kidney); experiment: Sulforhodamine B (SRB) cell viability assay; format: cell-based; details: 72 h, non-tumorigenic cells
Procedure: as §1, §2

C. albicans (10,935) = experiment: Broth microdilution antifungal susceptibility (CLSI M27-A3), MIC and MFC; format: cell-based, Candida albicans; details: for MFC / MIC: Candida albicans, 48 h
Procedure: (§3) The antifungal activity of the EO and its main components was evaluated against reference strains and clinical isolates of Candida. The reference strains C. albicans (ATCC 7978) and C. parapsilosis (ATCC 22019) were used, as well as the clinical isolates C. albicans 10,935, C. dubliniensis 3240, Candida glabrata 10,912, C. guilliermondii 12,204, C. lusitaniae 2305, and Candida tropicalis 9841. The clinical isolates were obtained from patients of the Base Hospital of […], Los Ríos Region, Chile. After identification, the microorganisms were included in the pathogenic fungal collection (Bioassay Laboratory of University of […]íso). They are maintained in Sabouraud Dextrose Broth (SDB) with glycerol at -80°C according to established protocols ([Madrid et al., 2012]). […] Briefly, cultures of all yeast were placed on Sabouraud Dextrose Agar (SDA) and incubated for 24-72 h at temperature 37°C. Colonies of this culture were suspended in sterile 0.85% NaCl and the inoculum was standardized according to the scale of 0.5 McFarland (1-5 × 10^6 CFU/mL). The antifungal assay was conducted in 96-well plates. […] A volume of 100 μL of inoculum suspension was added to each well with the exception of the sterility control where sterile water was added to the well instead. […] Following a 24-48 h incubation at 37°C, the absorbance of the plates was measured at 540 nm using a VERSA Max microplate reader (Molecular Devices, Sunnyvale, CA, United States) for spectrophotometric analysis. […] The lowest concentration with no visible growth was defined as MFC indicating 99.5% death of the original inoculum. All experiments were performed in triplicate and repeated three times for reproducibility.

C. albicans (ATCC 7978) = experiment: as above; format: cell-based, Candida albicans; details: for MFC / MIC: Candida albicans
Procedure: as §3

[3] = test system: C. parapsilosis (ATCC 22019); experiment: as above; format: cell-based, Candida parapsilosis; details: Lodderomyces parapsilosis
Procedure: as §3

[4] = test system: C. guilliermondii (12,204); experiment: as above; format: cell-based; details: Meyerozyma guilliermondii, 48 h
Procedure: as §3

C. lusitaniae (2305) = experiment: as above; format: cell-based; details: for MFC / MIC: Clavispora lusitaniae, 48 h; for MFC/MIC ratio: C. lusitaniae
Procedure: as §3

C. tropicalis (9841) = experiment: as above; format: cell-based; details: Candida tropicalis, 48 h
Procedure: as §3

C. glabrata (10,912) = experiment: as above; format: cell-based, Candida glabrata; details: for MFC / MIC: Nakaseomyces glabratus, 48 h
Procedure: as §3

Candida spp. = experiment: Broth microdilution antifungal susceptibility, summary over all tested strains; format: cell-based; details: for MIC: Candida, summary over all tested strains
Procedure: as §3

[5] = C. albicans (10,935), clinical isolate, read-out: MFC
[6] = C. albicans (10,935), clinical isolate, read-out: MIC
[7] = ATCC7978, C. albicans (ATCC 7978), 48 h, read-out: MFC
[8] = ATCC7978, C. albicans (ATCC 7978), 48 h, read-out: MIC
[9] = ATCC22019, C. parasilopsis (ATCC 22019), 48 h, read-out: MFC
[10] = ATCC22019, C. parasilopsis (ATCC 22019), 48 h, read-out: MIC
[11] = C. guilliermondii (12,204), clinical isolate, read-out: MFC
[12] = C. guilliermondii (12,204), clinical isolate, read-out: MIC
[13] = C. lusitaniae (2305), clinical isolate, read-out: MFC
[14] = C. lusitaniae (2305), clinical isolate, read-out: MIC
[15] = C. tropicalis (9841), clinical isolate, read-out: MFC
[16] = C. tropicalis (9841), clinical isolate, read-out: MIC
[17] = C. glabrata (10,912), clinical isolate, read-out: MFC
[18] = C. glabrata (10,912), clinical isolate, read-out: MIC
[19] = as stated in the text for several or all strains
[20] = remaining species/strains, those not named with ratio 1

Row | SMILES | MFC (C. albicans (10,935); [5]) [µg/mL] | MIC (C. albicans (10,935); [6]) [µg/mL] | MFC (C. albicans (ATCC 7978); [7]) [µg/mL] | MIC (C. albicans (ATCC 7978); [8]) [µg/mL] | MFC [3, 9] [µg/mL] | MIC [3, 10] [µg/mL] | MFC [4, 11] [µg/mL] | MIC [4, 12] [µg/mL] | MFC (C. lusitaniae (2305); [13]) [µg/mL] | MIC (C. lusitaniae (2305); [14]) [µg/mL] | MFC (C. tropicalis (9841); [15]) [µg/mL] | MIC (C. tropicalis (9841); [16]) [µg/mL] | MFC (C. glabrata (10,912); [17]) [µg/mL] | MIC (C. glabrata (10,912); [18]) [µg/mL] | further results
1 | O=c1[nH]cc(F)c(=O)[nH]1 [5-FU, 5-fluorouracil] |  |  |  |  |  |  |  |  |  |  |  |  |  |  | IC50 [1]: 56.4 ± 0.31 µg/mL (≈ 434 µM); IC50 [2]: 18.3 ± 0.56 µg/mL (≈ 141 µM)
2 | C[C@@H]1[C@H](O)[C@@H](C)/C=C/C=C/C=C/C=C/C=C/C=C/C=C/[C@H](O[C@@H]2O[C@H](C)[C@@H](O)[C@H](N)[C@@H]2O)C[C@@H]2O[C@](O)(C[C@@H](O)C[C@@H](O)[C@H](O)CC[C@@H](O)C[C@@H](O)CC(=O)O[C@H]1C)C[C@H](O)[C@H]2C(=O)O [C1, amphotericin B, reference compound] | 256 (≈ 277 µM) | 128 (≈ 139 µM) | 2 (≈ 2.16 µM) | 1 (≈ 1.08 µM) | 1 (≈ 1.08 µM) | 0.5 (≈ 0.541 µM) | 128 (≈ 139 µM) | 64 (≈ 69.3 µM) | 128 (≈ 139 µM) | 64 (≈ 69.3 µM) | 64 (≈ 69.3 µM) | 32 (≈ 34.6 µM) | 256 (≈ 277 µM) | 128 (≈ 139 µM) | 
3 | OC(Cn1cncn1)(Cn1cncn1)c1ccc(F)cc1F [C2, fluconazole, reference compound] | 4 (≈ 13.1 µM) | 2 (≈ 6.53 µM) | 1 (≈ 3.27 µM) | 0.5 (≈ 1.63 µM) | 2 (≈ 6.53 µM) | 1 (≈ 3.27 µM) | 1 (≈ 3.27 µM) | 0.5 (≈ 1.63 µM) | 4 (≈ 13.1 µM) | 2 (≈ 6.53 µM) | 1 (≈ 3.27 µM) | 0.5 (≈ 1.63 µM) | 64 (≈ 209 µM) | 32 (≈ 104 µM) | MFC/MIC ratio (Candida spp.; [19]): 2
4 | CCC(C)n1ncn(-c2ccc(N3CCN(c4ccc(OCC5COC(Cn6cncn6)(c6ccc(Cl)cc6Cl)O5)cc4)CC3)cc2)c1=O (stereo not shown) [C3, itraconazole, reference compound] | 8 (≈ 11.3 µM) | 4 (≈ 5.67 µM) | 1 (≈ 1.42 µM) | 0.5 (≈ 0.709 µM) | 1 (≈ 1.42 µM) | 1 (≈ 1.42 µM) | 4 (≈ 5.67 µM) | 2 (≈ 2.83 µM) | 8 (≈ 11.3 µM) | 4 (≈ 5.67 µM) | 1 (≈ 1.42 µM) | 0.5 (≈ 0.709 µM) | 16 (≈ 22.7 µM) | 8 (≈ 11.3 µM) | 
5 | CC(C)=C1CC[C@@H](C)CC1=O [Compound 1, pulegone] |  |  |  |  |  |  |  |  |  |  |  |  |  |  | MFC (C. albicans (10,935)): 128 µg/mL (≈ 841 µM); MIC (C. albicans (10,935)): 64 µg/mL (≈ 420 µM); MFC (C. albicans (ATCC 7978); ATCC7978, 48 h): 128 µg/mL (≈ 841 µM); MIC (C. albicans (ATCC 7978); ATCC7978, 48 h): 128 µg/mL (≈ 841 µM); MFC ([3]; ATCC22019, 48 h): 256 µg/mL (≈ 1680 µM); MIC ([3]; ATCC22019, 48 h): 128 µg/mL (≈ 841 µM); MFC [4]: 128 µg/mL (≈ 841 µM); MIC [4]: 64 µg/mL (≈ 420 µM); MFC/MIC ratio (C. lusitaniae (2305)): 1; MFC (C. lusitaniae (2305)): 64 µg/mL (≈ 420 µM); MIC (C. lusitaniae (2305)): 64 µg/mL (≈ 420 µM); MFC (C. tropicalis (9841)): 256 µg/mL (≈ 1680 µM); MIC (C. tropicalis (9841)): 128 µg/mL (≈ 841 µM); MFC (C. glabrata (10,912)): 128 µg/mL (≈ 841 µM); MIC (C. glabrata (10,912)): 128 µg/mL (≈ 841 µM); MFC/MIC ratio (Candida spp.; [20]): 2
6 | Cc1ccc(C(C)C)c(O)c1 [Compound 2, thymol] | 32 (≈ 213 µM) | 32 (≈ 213 µM) | 64 (≈ 426 µM) | 64 (≈ 426 µM) | 64 (≈ 426 µM) | 32 (≈ 213 µM) | 64 (≈ 426 µM) | 32 (≈ 213 µM) | 64 (≈ 426 µM) | 32 (≈ 213 µM) | 128 (≈ 852 µM) | 64 (≈ 426 µM) | 64 (≈ 426 µM) | 64 (≈ 426 µM) | MFC/MIC ratio (C. albicans (10,935); C. albicans (10,935)): 1; MFC/MIC ratio (C. albicans (ATCC 7978); C. albicans (ATCC 7978)): 1; MFC/MIC ratio (C. lusitaniae (2305)): 1; MFC/MIC ratio (C. glabrata (10,912); C. glabrata): 1; MIC (Candida spp.): 32 to 64 µg/mL (≈ 213 to 426 µM); MFC/MIC ratio (Candida spp.; [20]): 2
7 | CC1CCC(C(C)C)C(=O)C1 (stereo not shown) [Compound 3, isomenthone] | 128 (≈ 830 µM) | 128 (≈ 830 µM) | 128 (≈ 830 µM) | 128 (≈ 830 µM) | 128 (≈ 830 µM) | 128 (≈ 830 µM) | 128 (≈ 830 µM) | 128 (≈ 830 µM) | 64 (≈ 415 µM) | 64 (≈ 415 µM) | 128 (≈ 830 µM) | 64 (≈ 415 µM) | 128 (≈ 830 µM) | 128 (≈ 830 µM) | MIC (Candida spp.): 128 µg/mL (≈ 830 µM); MFC/MIC ratio (Candida spp.; [19]): 1
